Experiments:
[1] = test system: different strains of C. tyrobutyricum; test: MIC value determination against C. tyrobutyricum; type: cell-based, Clostridium tyrobutyricum
Protocol: The dairy Propionibacteria that are comprised in the starter culture according to the invention are preferably characterized by having a MIC value of 5 mg or higher, more preferably 10 mg or higher, even more preferably 25 mg or higher, even more preferably 50 mg or higher, most preferably even 100 mg or higher for lacticin 3147 per litre of growth medium. Herein, the term MIC has its common meaning of “minimal inhibitory concentration” and is the lowest concentration of an antimicrobial (in the present case lacticin 3147) that will inhibit the visible growth of a microorganism after overnight incubation. MIC values for lacticin 3147 or other bacteriocins are typically determined according to the following test: Propionibacterium strains are grown from an individual colony for 2-3 nights (SLA, 30° C., anaerobically) until turbid. 3% inoculum is subbed into fresh SLA medium and incubated for approx. 7 hours until OD600 0.5 is reached. […] Growth following incubation at 30° C. anaerobically for 19-24 hours is visually evaluated by inspecting turbidity from left to right. MIC values are determined according to the last well where no visible growth is observed (average of triplicate determinations). […]
MIC values were determined according to a protocol from UCC & Piper et al., J. Antimicrob. […]

[2] = test system: Propionibacteria freudenreichii DPC 2241; test: MIC value determination, 96 wells microtitre plate; type: cell-based, Propionibacterium freudenreichii; conditions: strain DPC 2241; SLA medium, 30° C. anaerobically 19-24 hours; average of triplicate
Protocol: (§1) The dairy Propionibacteria that are comprised in the starter culture according to the invention are preferably characterized by having a MIC value of 5 mg or higher, more preferably 10 mg or higher, even more preferably 25 mg or higher, even more preferably 50 mg or higher, most preferably even 100 mg or higher for lacticin 3147 per litre of growth medium. Herein, the term MIC has its common meaning of “minimal inhibitory concentration” and is the lowest concentration of an antimicrobial (in the present case lacticin 3147) that will inhibit the visible growth of a microorganism after overnight incubation. MIC values for lacticin 3147 or other bacteriocins are typically determined according to the following test: Propionibacterium strains are grown from an individual colony for 2-3 nights (SLA, 30° C., anaerobically) until turbid. 3% inoculum is subbed into fresh SLA medium and incubated for approx. 7 hours until OD600 0.5 is reached. Of the resulting culture, 10^5 cfu/ml is inoculated into 96 wells microtitreplates containing fresh SLA medium comprising lacticin 3147, or other bacteriocin, ranging in concentrations from 100 mg/L to 0.01 mg/L (high concentrations to the left, low concentrations to the right). Growth following incubation at 30° C. anaerobically for 19-24 hours is visually evaluated by inspecting turbidity from left to right. MIC values are determined according to the last well where no visible growth is observed (average of triplicate determinations). The above protocol under appropriate growth conditions can be used to obtain MIC values of other strains, e.g. of Lactoabacilli, Clostridia, etc., against lacticin 3147 or other bacteriocins such as nisin. […] At the same time MIC values against nisin were at least 20 times lower.
(§2) MIC values were determined according to a protocol from UCC & Piper et al., J. Antimicrob. Chemother. 2009, 61(3), 546. The protocol was adapted for 96 wells mictrotitre plate screening. Indicator strains Lb. delbrueckii ssp. lactis, C99 (commercially available ex CSK Food Enrichment CV) and Propionibacterium freudenreichii, C21 (commercially available ex CSK Food Enrichment CV) were used. Growth media were MRS for C99, sodium lactate agar (SLA) for C21.
(§3) MIC value determination of propionibacteria against lacticin was performed according to the following procedure: Propionibacterium strains were grown, from an individual colony, for 2-3 nights (SLA, 30 deg C., anaerobically) until turbid. 3% inoculum was subbed into fresh SLA medium and incubated for approx. 7 hours until OD600 0.5 was reached. Of the resulting culture, 10^5 cfu/ml was inoculated into 96 wells microtitreplates containing fresh SLA medium comprising lacticin 3147 ranging in concentrations from 100 mg/L to 0.01 mg/L (high concentrations to the left, low concentrations to the right). Visually evaluated growth following incubation at 30° C. anaerobically for 19-24 hours, by inspecting turbidity from left to right (i.e. starting at the highest lacticin concentrations). MIC values were determined according to the last well where no visible growth is observed (average of triplicate determinations). MIC values against nisin have be obtained similarly.

[3] = test system: Propionibacteria freudenreichii CSK code 21; test: MIC value determination, 96 wells microtitre plate; type: cell-based, Propionibacterium freudenreichii; conditions: strain CSK code 21; SLA medium, 30° C. anaerobically 19-24 hours; average of triplicate
Protocol: as §1, §2, §3

[4] = test system: Propionibacteria freudenreichii CSK 1205; test: MIC value determination, 96 wells microtitre plate; type: cell-based, Propionibacterium freudenreichii; conditions: strain CSK 1205; SLA medium, 30° C. anaerobically 19-24 hours; average of triplicate
Protocol: as §1, §2, §3

[5] = test system: Propionibacteria freudenreichii DPC 4555; test: MIC value determination, 96 wells microtitre plate; type: cell-based, Propionibacterium freudenreichii; conditions: strain DPC 4555; SLA medium, 30° C. anaerobically 19-24 hours; average of triplicate
Protocol: as §1, §2, §3

[6] = test system: Lb. delbrueckii ssp. lactis, C99; test: MIC value determination of Lactobacilli; type: cell-based, Lactobacillus delbrueckii; conditions: results not shown
Protocol: as §2
MIC value determination of Lactobacilli against lacticin was performed according to the following procedure: Lactobacillus strains were grown, from an individual colony, overnight (MRS, 37 deg C., anaerobically) until turbid. 3% inoculum was subbed into fresh […] medium and incubated for approx. 7 hours until OD600 0.5 was reached. Of the resulting culture, 10^5 cfu/ml was inoculated into 96 wells microtitreplates containing fresh MRS medium comprising lacticin 3147 ranging in concentrations from 100 mg/L to 0.01 mg/L (high concentrations to the left, low concentrations to the right). Visually evaluated growth following incubation at 37° C. anaerobically for 19-24 hours, by inspecting turbidity from left to right (i.e. starting at the highest lacticin concentrations). MIC values were determined according to the last well where no visible growth is observed (average of triplicate determinations).

Row | Substance | MIC values [1] | MIC [2] | MIC [3] | MIC [4] | MIC [5] | lacticin 3147 required to inhibit relative to nisin [6]
1 | nisin [reference compound] | 0.03 to 0.1 µg/mL | 2.5 µg/mL | 1.25 µg/mL | 1.25 µg/mL | 0.039 µg/mL | 
2 | lacticin 3147 | 0.4 to 2.5 µg/mL | >50 µg/mL | >50 µg/mL | >50 µg/mL | 8.3 µg/mL | Approximately 10 times

Source: patent US10595542B2, “Method for producing Swiss-type cheese” (CSK Food Enrichment B.V., priority 2014, dated 2020)
